Structures can show the parent of a compound that is named as a salt.
Biological target: T1, rat FAAH (Rattus norvegicus, UniProt P97612)
T1 construct: expressed in transfected cells
T1 sequence (P97612 1-579): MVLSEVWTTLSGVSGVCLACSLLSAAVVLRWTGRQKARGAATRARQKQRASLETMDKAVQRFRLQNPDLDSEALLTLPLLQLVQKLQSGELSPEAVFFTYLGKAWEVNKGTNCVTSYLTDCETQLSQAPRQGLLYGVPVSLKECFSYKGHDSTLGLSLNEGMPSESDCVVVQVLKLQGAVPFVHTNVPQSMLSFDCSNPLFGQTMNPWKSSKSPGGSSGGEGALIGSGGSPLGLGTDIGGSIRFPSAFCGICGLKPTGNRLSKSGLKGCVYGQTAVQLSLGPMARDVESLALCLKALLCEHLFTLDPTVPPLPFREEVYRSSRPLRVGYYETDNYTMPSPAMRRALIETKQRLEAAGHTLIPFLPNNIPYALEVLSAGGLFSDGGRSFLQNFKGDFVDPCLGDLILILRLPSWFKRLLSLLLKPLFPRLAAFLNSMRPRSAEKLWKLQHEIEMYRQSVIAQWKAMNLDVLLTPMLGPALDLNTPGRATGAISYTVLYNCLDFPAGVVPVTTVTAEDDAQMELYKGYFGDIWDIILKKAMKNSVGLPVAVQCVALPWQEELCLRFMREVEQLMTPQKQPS
Test: Assay Method 2: FAAH assay, anandamide hydrolysis in cell homogenate
Type: biochemical
Settings: for IC50: average value (standard error of the mean in parenthesis), 3H-AEA 80 nM, 1 h rt
Description: A. Transfection of Cells with Rat FAAH
A 10-cm tissue culture dish with a confluent monolayer of SK-N-MC cells was split 2 d prior to transfection. Using sterile technique, the media was removed and the cells were detached from the dish by the addition of trypsin. One fifth of the cells were then placed onto a new 10-cm dish. Cells were grown in a 37° C. incubator with 5% CO2 in Minimal Essential Media Eagle containing 10% Fetal Bovine Serum. After 2 d, cells were approximately 80% confluent. These cells were removed from the dish with trypsin and pelleted in a clinical centrifuge. The pellet was re-suspended in 400 μL complete media and transferred to an electroporation cuvette with a 0.4 cm gap between the electrodes. Supercoiled rat FAAH cDNA (1 μg), corresponding to NCBI accession NM_024132, was added to the cells and mixed. The voltage for the electroporation was set at 0.25 kV, and the capacitance was set at 960 μF. After electroporation, the cells were diluted into complete media (10 mL) and plated onto four 10-cm dishes. Because of the variability in the efficiency of electroporation, four different concentrations of cells were plated. The ratios used were 1:20, 1:10, and 1:5, with the remainder of the cells being added to the fourth dish. The cells were allowed to recover for 24 h before adding the selection media (complete media with 600 μg/mL G418). After 10 d, dishes were analyzed for surviving colonies of cells. Dishes with well-isolated colonies were used. Cells from individual colonies were isolated and tested.
T84 frozen cell pellets or transfected SK-N-MC cells (contents of 1×15 cm culture dishes) were homogenized in 50 mL of FAAH assay buffer (125 mM Tris, 1 mM EDTA, 0.2% Glycerol, 0.02% Triton X-100, 0.4 mM Hepes, pH 9). The assay mixture consisted of 50 μL of the cell homogenate, 10 μL of the test compound, and 40 μL of anandamide [1-^3H-ethanolamine] (^3H-AEA, Perkin-Elmer, 10.3 Ci/mmol), which was added last, for a final tracer concentration of 80 nM. The reaction mixture was incubated at rt for 1 h. During the incubation, 96-well Multiscreen filter plates (catalog #MAFCNOB50; Millipore, Bedford, Mass., USA) were loaded with 25 μL of activated charcoal (Multiscreen column loader, catalog #MACL09625, Millipore) and washed once with 100 μL of MeOH. Also during the incubation, 96-well DYNEX MicroLite plates (catalog #NL510410) were loaded with 100 μL of MicroScint40 (catalog #6013641, Packard Bioscience, Meriden, Conn., USA). After the 1 h incubation, 60 μL of the reaction mixture were transferred to the charcoal plates, which were then assembled on top of the DYNEX plates using Centrifuge Alignment Frames (catalog #MACF09604, Millipore). […]

O=C(Nc1cccnc1)N1CCN(Cc2cccc(Oc3ccc(Cl)cc3)c2)CC1 [4-({3-[(4-Chlorophenyl)oxy]phenyl}methyl)-N-pyridin-3-ylpiperazine-1-carboxamide] showed an IC50 of 65 nM.
Molecule O=C(Nc1cccnc1)N1CCN(Cc2cccc(Oc3ccc(Br)cc3)c2)CC1 [4-[3-(4-Bromophenoxy)benzyl]-N-pyridin-3-ylpiperazine-1-carboxamide] has an IC50 of 22 nM.
For O=C(Nc1cccnc1)N1CCN(Cc2cccc(Oc3ccc(C(F)(F)F)cc3)c2)CC1 [Example 1, N-Pyridin-3-yl-4-{3-[4-(trifluoromethyl)phenoxy]benzyl}piperazine-1-carboxamide, bis-hydrochloride dihydrate], the IC50 was 18 nM and the “times more potent in in vitro assays using rat FAAH enzyme (vs 4-chlorophenyl comparator)” value (relative to 4-({3-[(4-chlorophenyl)oxy]phenyl}methyl)-N-pyridin-3-ylpiperazine-1-carboxamide) was “about 3.5 times”.
